Where a SMILES comes first, the peptide text is derived from it. Where no end group is shown, it is not given here. [ ]: non-standard residue; d: D form. Ac6c = NC1(C(=O)O)CCCCC1; Nle = CCCC[C@H](N)C(=O)O; Ac5c = NC1(C(=O)O)CCCC1; Aib = CC(C)(N)C(=O)O
How the values were obtained:
[1] = Human plasma half-life assay; assay type: in vitro ADME; details: human plasma, 37° C., LC-MS; read-out: Human Plasma T½ (converted)
[2] = molecular target: T1, human recombinant GIP receptor (Homo sapiens, UniProt P48546); assay: In vitro hGIP receptor binding assay ([125I]GIP displacement, CHO-K1 membranes)
T1 construct: expressed in transfected cells; host or cells: CHO-K1 clonal cells (membranes)
T1 sequence (P48546 22-466): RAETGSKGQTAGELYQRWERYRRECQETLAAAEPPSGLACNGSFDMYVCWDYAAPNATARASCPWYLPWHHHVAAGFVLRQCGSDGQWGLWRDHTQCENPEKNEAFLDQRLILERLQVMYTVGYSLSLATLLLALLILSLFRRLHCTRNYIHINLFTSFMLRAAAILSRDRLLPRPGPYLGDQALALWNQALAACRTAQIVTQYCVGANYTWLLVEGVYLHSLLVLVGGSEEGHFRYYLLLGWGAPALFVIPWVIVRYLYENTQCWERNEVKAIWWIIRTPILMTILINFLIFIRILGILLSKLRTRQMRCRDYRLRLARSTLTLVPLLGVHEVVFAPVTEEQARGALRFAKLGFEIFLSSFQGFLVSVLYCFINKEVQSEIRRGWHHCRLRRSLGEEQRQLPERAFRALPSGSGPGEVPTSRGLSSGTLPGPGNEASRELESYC
From the text: A. In Vitro hGIP Receptor Binding Assay

[3] = Rat plasma half-life assay; assay type: in vitro ADME; details: rat plasma, 37° C., LC-MS; read-out: Rat Plasma T½ (converted)

CCCC[C@H](NC(=O)[C@H](C)NC(=O)[C@@H](NC(=O)[C@H](CO)NC(=O)[C@H](Cc1ccc(O)cc1)NC(=O)[C@H](CC(=O)O)NC(=O)[C@H](CO)NC(=O)[C@@H](NC(=O)[C@H](Cc1ccccc1)NC(=O)[C@@H](NC(=O)CNC(=O)[C@H](CCC(=O)O)NC(=O)C1(NC(=O)[C@@H](N)Cc2ccc(O)cc2)CCCC1)[C@@H](C)O)[C@@H](C)CC)[C@@H](C)CC)C(=O)N[C@@H](CC(=O)O)C(=O)N[C@@H](CCCCN)C(=O)N[C@H](C(=O)N[C@@H](Cc1c[nH]cn1)C(=O)N[C@@H](CCC(N)=O)C(=O)N[C@@H](CCC(N)=O)C(=O)N[C@@H](CC(=O)O)C(=O)N[C@@H](Cc1ccccc1)C(=O)N[C@H](C(=O)N[C@@H](CC(N)=O)C(=O)N[C@@H](Cc1c[nH]c2ccccc12)C(=O)N[C@@H](CC(C)C)C(=O)N[C@@H](CC(C)C)C(=O)N[C@@H](C)C(=O)N[C@@H](CCC(N)=O)C(=O)N[C@@H](CCCCN)C(=O)NCC(=O)N[C@@H](CCCCN)C(=O)N[C@@H](CCCCN)C(=O)N[C@@H](CC(N)=O)C(=O)N[C@@H](CC(=O)O)C(=O)N[C@@H](Cc1c[nH]c2ccccc12)C(=O)N[C@@H](CCCCN)C(=O)N[C@@H](Cc1c[nH]cn1)C(=O)N[C@@H](CC(N)=O)C(=O)N[C@H](C(=O)N[C@H](C(=O)N[C@@H](CCC(N)=O)C(=O)O)[C@@H](C)O)[C@@H](C)CC)C(C)C)[C@@H](C)CC [Example 40, (A5c^2, Nle^14)hGIP(1-42)-OH]
half-life at 0.1 mg/ml [1]: 7.7 h
Ki [2]: 15.9 nM
half-life at 0.1 mg/ml [3]: 4.9 h

CC[C@H](C)[C@H](NC(=O)[C@H](CCCCN)NC(=O)[C@H](CC(=O)O)NC(=O)[C@H](CCSC)NC(=O)[C@H](C)NC(=O)[C@@H](NC(=O)C1(NC(=O)[C@H](Cc2ccc(O)cc2)NC(=O)[C@H](CC(=O)O)NC(=O)[C@H](CO)NC(=O)[C@@H](NC(=O)[C@H](Cc2ccccc2)NC(=O)[C@@H](NC(=O)CNC(=O)[C@H](CCC(=O)O)NC(=O)C(C)(C)NC(=O)[C@@H](N)Cc2ccc(O)cc2)[C@@H](C)O)[C@@H](C)CC)CCCC1)[C@@H](C)CC)C(=O)N[C@@H](Cc1c[nH]cn1)C(=O)N[C@@H](CCC(N)=O)C(=O)N[C@@H](CCC(N)=O)C(=O)N[C@@H](CC(=O)O)C(=O)N[C@@H](Cc1ccccc1)C(=O)N[C@H](C(=O)N[C@@H](CC(N)=O)C(=O)N[C@@H](Cc1c[nH]c2ccccc12)C(=O)N[C@@H](CC(C)C)C(=O)N[C@@H](CC(C)C)C(=O)N[C@@H](C)C(=O)N[C@@H](CCC(N)=O)C(=O)N[C@@H](CCCCN)C(N)=O)C(C)C [Example 46, (Aib^2, A5c^11)hGIP(1-30)-NH2] (H-Y[Aib]EGTFISDY[Ac5c]IAMDKIHQQDFVNWLLAQK-NH2; N-terminus assumed)
half-life at 0.1 mg/ml [1]: 12.2 h
Ki [2]: 0.09 nM
half-life at 0.1 mg/ml [3]: > 54 h

CCCC[C@H](NC(=O)C(C)(C)NC(=O)[C@@H](NC(=O)[C@H](CO)NC(=O)[C@H](Cc1ccc(O)cc1)NC(=O)[C@H](CC(=O)O)NC(=O)[C@H](CO)NC(=O)[C@@H](NC(=O)[C@H](Cc1ccccc1)NC(=O)[C@@H](NC(=O)CNC(=O)[C@H](CCC(=O)O)NC(=O)C(C)(C)NC(=O)[C@@H](N)Cc1ccc(O)cc1)[C@@H](C)O)[C@@H](C)CC)[C@@H](C)CC)C(=O)N[C@@H](CC(=O)O)C(=O)N[C@@H](CCCCN)C(=O)N[C@H](C(=O)N[C@@H](Cc1c[nH]cn1)C(=O)N[C@@H](CCC(N)=O)C(=O)N[C@@H](CCC(N)=O)C(=O)N[C@@H](CC(=O)O)C(=O)N[C@@H](Cc1ccccc1)C(=O)N[C@H](C(=O)N[C@@H](CC(N)=O)C(=O)N[C@@H](Cc1c[nH]c2ccccc12)C(=O)N[C@@H](CC(C)C)C(=O)N[C@@H](CC(C)C)C(=O)N[C@@H](C)C(=O)N[C@@H](CCC(N)=O)C(=O)N[C@@H](CCCCN)C(=O)NCC(=O)N[C@@H](CCCCN)C(=O)N[C@@H](CCCCN)C(=O)N[C@@H](CC(N)=O)C(=O)N[C@@H](CC(=O)O)C(=O)N[C@@H](Cc1c[nH]c2ccccc12)C(=O)N[C@@H](CCCCN)C(=O)N[C@@H](Cc1c[nH]cn1)C(=O)N[C@@H](CC(N)=O)C(=O)N[C@H](C(=O)N[C@H](C(=O)N[C@@H](CCC(N)=O)C(=O)O)[C@@H](C)O)[C@@H](C)CC)C(C)C)[C@@H](C)CC [Example 57, (Aib^2, 13, Nle^14)hGIP(1-42)-OH]
half-life at 0.1 mg/ml [1]: 30.5 h
Ki [2]: 0.05 nM
half-life at 0.1 mg/ml [3]: 13.8 h

CC[C@H](C)[C@H](NC(=O)[C@H](CCCCN)NC(=O)[C@H](CC(=O)O)NC(=O)[C@H](CCSC)NC(=O)C(C)(C)NC(=O)[C@@H](NC(=O)[C@H](CO)NC(=O)[C@H](Cc1ccc(O)cc1)NC(=O)[C@H](CC(=O)O)NC(=O)[C@H](CO)NC(=O)[C@@H](NC(=O)[C@H](Cc1ccccc1)NC(=O)[C@@H](NC(=O)CNC(=O)[C@H](CCC(=O)O)NC(=O)C(C)(C)NC(=O)[C@@H](N)Cc1ccc(O)cc1)[C@@H](C)O)[C@@H](C)CC)[C@@H](C)CC)C(=O)N[C@@H](Cc1c[nH]cn1)C(=O)N[C@@H](CCC(N)=O)C(=O)N[C@@H](CCC(N)=O)C(=O)N[C@@H](CC(=O)O)C(=O)N[C@@H](Cc1ccccc1)C(=O)N[C@H](C(=O)N[C@@H](CC(N)=O)C(=O)N[C@@H](Cc1c[nH]c2ccccc12)C(=O)N[C@@H](CC(C)C)C(=O)N[C@@H](CC(C)C)C(=O)N[C@@H](C)C(=O)N[C@@H](CCC(N)=O)C(=O)N[C@@H](CCCCN)C(=O)NCC(=O)N[C@@H](CCCCN)C(=O)N[C@@H](CCCCN)C(=O)N[C@@H](CC(N)=O)C(=O)N[C@@H](CC(=O)O)C(=O)N[C@@H](Cc1c[nH]c2ccccc12)C(=O)N[C@@H](CCCCN)C(=O)N[C@@H](Cc1c[nH]cn1)C(=O)N[C@@H](CC(N)=O)C(=O)N[C@H](C(=O)N[C@H](C(=O)N[C@@H](CCC(N)=O)C(=O)O)[C@@H](C)O)[C@@H](C)CC)C(C)C [Example 60, (Aib^2, 13)hGIP(1-42)-OH]
half-life at 0.1 mg/ml [1]: 26 h
Ki [2]: 0.05 nM
half-life at 0.1 mg/ml [3]: 10.5 h

CCCC[C@H](NC(=O)[C@H](C)NC(=O)[C@@H](NC(=O)C1(NC(=O)[C@H](Cc2ccc(O)cc2)NC(=O)[C@H](CC(=O)O)NC(=O)[C@H](CO)NC(=O)[C@@H](NC(=O)[C@H](Cc2ccccc2)NC(=O)[C@@H](NC(=O)CNC(=O)[C@@H]2CCCN2C(=O)[C@H](C)NC(=O)[C@@H](N)Cc2ccc(O)cc2)[C@@H](C)O)[C@@H](C)CC)CCCC1)[C@@H](C)CC)C(=O)N[C@@H](CC(=O)O)C(=O)N[C@@H](CCCCN)C(=O)N[C@H](C(=O)N[C@@H](Cc1c[nH]cn1)C(=O)N[C@@H](CCC(N)=O)C(=O)N[C@@H](CCC(N)=O)C(=O)N[C@@H](CC(=O)O)C(=O)N[C@@H](Cc1ccccc1)C(=O)N[C@H](C(=O)N[C@@H](CC(N)=O)C(=O)N[C@@H](Cc1c[nH]c2ccccc12)C(=O)N[C@@H](CC(C)C)C(=O)N[C@@H](CC(C)C)C(=O)N[C@@H](C)C(=O)N[C@@H](CCC(N)=O)C(=O)N[C@@H](CCCCN)C(=O)O)C(C)C)[C@@H](C)CC [Example 92, (Pro^3, A5c^11, Nle^14)hGIP(1-30)-OH] (H-YAPGTFISDY[Ac5c]IA[Nle]DKIHQQDFVNWLLAQK-OH; N-terminus and C-terminus assumed)
half-life at 0.1 mg/ml [1]: 12 h
Ki [2]: 86.8 nM
half-life at 0.1 mg/ml [3]: 1.6 h

CCCC[C@H](NC(=O)C(C)(C)NC(=O)[C@@H](NC(=O)[C@H](CO)NC(=O)[C@H](Cc1ccc(O)cc1)NC(=O)[C@H](CC(=O)O)NC(=O)[C@H](CO)NC(=O)[C@@H](NC(=O)[C@H](Cc1ccccc1)NC(=O)[C@@H](NC(=O)CNC(=O)[C@@H]1CCCN1C(=O)C(C)(C)NC(=O)[C@@H](N)Cc1ccc(O)cc1)[C@@H](C)O)[C@@H](C)CC)[C@@H](C)CC)C(=O)N[C@@H](CC(=O)O)C(=O)N[C@@H](CCCCN)C(=O)N[C@H](C(=O)N[C@@H](Cc1c[nH]cn1)C(=O)N[C@@H](CCC(N)=O)C(=O)N[C@@H](CCC(N)=O)C(=O)N[C@@H](CC(=O)O)C(=O)N[C@@H](Cc1ccccc1)C(=O)N[C@H](C(=O)N[C@@H](CC(N)=O)C(=O)N[C@@H](Cc1c[nH]c2ccccc12)C(=O)N[C@@H](CC(C)C)C(=O)N[C@@H](CC(C)C)C(=O)N[C@@H](C)C(=O)N[C@@H](CCC(N)=O)C(=O)N[C@@H](CCCCN)C(N)=O)C(C)C)[C@@H](C)CC [Example 108, (Aib^2, 13, Pro^3, Nle^14)hGIP(1-30)-NH2] (H-Y[Aib]PGTFISDYSI[Aib][Nle]DKIHQQDFVNWLLAQK-NH2; N-terminus assumed)
half-life at 0.1 mg/ml [1]: 46.2 h
Ki [2]: 0.07 nM
half-life at 0.1 mg/ml [3]: 45.6 h

Y[Aib]EGTFISDYSIA[Ac6c]DKIHQQDFVNWLLAQKGKKNDWKHNITQ-OH [Example 42, (Aib^2, A6c^14)hGIP(1-42)-OH]
half-life at 0.1 mg/ml [1]: 10.6 h
Ki [2]: 0.07 nM
half-life at 0.1 mg/ml [3]: 6.2 h

Y[Aib]EGTFISDY[Aib]IA[Ac6c]DKIHQQDFVNWLLAQKGKKNDWKHNITQ-OH [Example 41, (Aib^2, 11, A6c^14)hGIP(1-42)-OH]
half-life at 0.1 mg/ml [1]: 15.9 h
Ki [2]: 0.73 nM
half-life at 0.1 mg/ml [3]: 13.3 h

Y[Aib]EGTF[Ac6c]SDYSIAMDKIHQQDFVNWLLAQKGKKNDWKHNITQ-OH [Example 43, (Aib^2, A6c^7)hGIP(1-42)-OH]
half-life at 0.1 mg/ml [1]: 8.8 h
Ki [2]: 0.3 nM
half-life at 0.1 mg/ml [3]: 7.7 h

Y[Aib]EGTF[Ac6c]SDYSIAMDKIHQQDFVNWLLAQKGKKNDWKHNI[Aib]Q-OH [Example 23, (Aib^2, 41, A6c^7)hGIP(1-42)-OH]
half-life at 0.1 mg/ml [1]: > 48 h
Ki [2]: 0.87 nM
half-life at 0.1 mg/ml [3]: 6.7 h

Y[Aib]EGTF[Ac6c]SDYSI[Aib][Nle]DKIHQQDFVNWLLAQKGKKNDWKHNITQ-OH [Example 21, (Aib^2, 13, A6c^7, Nle^14)hGIP(1-42)-OH]
half-life at 0.1 mg/ml [1]: > 48 h
Ki [2]: 0.3 nM
half-life at 0.1 mg/ml [3]: 12.3 h

Reference: patent publication US9074014B2 (Ipsen Pharma S.A.S., priority 2008, dated 2015)
